Test results from patent US12588689B2, “Feed additive composition containing erythritol” (EASY BIO, INC, priority 2020, dated 2026).
Marks after values point to notes of the source that are not given here.

Test system: broiler chickens (Ross 308)
Test: Broiler chicken specification test, composition containing erythritol (noise and high temperature stress)
Format: in vivo
Description: To investigate the influence of composition containing erythritol on high temperature stress reduction in summer season, 1,280 broiler chickens (Ross 308; male and female chickens) with average weight of 44.0 g and 1 day old were divided into eight treatment groups with 10 repetitions, and then, 16 chickens were arbitrarily located in total 80 fences, thereby performing breeding tests. The mixing rates represent weight ratios, and additives by treatment group are post-formulated in a farm. The erythritol (99%) used in the formulation was purchased at Vision Pharmalab Co., Ltd., and the beta-glucan was used with Biolife (ENT Co., Ltd., 40 to 50% beta-glucan content) used in the fourth embodiment of the present invention. • Control group (CON): Formulated feed • E: Formulated feed+0.02% erythritol • B: Formulated feed+0.02% beta-glucan • L: Formulated feed+0.02% lipidol • E+B: Formulated feed+0.02% erythritol+0.02% beta-glucan • E+L: Formulated feed+0.02% erythritol+0.02% lipidol • B+L: Formulated feed+0.02% beta-glucan+0.02% lipidol • E+B+L: Formulated feed+0.02% erythritol+0.02% beta-glucan+0.02% lipidol
The feed and water were sufficiently supplied and freely fed. So as to cause stress, 80 to 100 dB noise was produced two times per a day for ten minutes, and to cause high temperature stress, Temperature-Humidity Index (THI) as shown in FIG. 4 was kept.
The weights and feed intake were measured on week 1, week 3, and week 5 to calculate weight gain per day, feed intake per day, and feed conversion ratios (FCR), and the calculated results are listed in Table 6, together with mortality rates.

How did the Feed conversion ratio (Step 1 (1~7 days of age)) turn out when `OC[C@@H](O)[C@@H](O)CO` [E, erythritol] was run?
Its Feed conversion ratio is 1.36.

What about the Feed intake (Step 1 (1~7 days of age)) of the same compound?
The Feed intake was 19.4 g/day.

What about the Mortality rate (Step 1 (1~7 days of age)) of the same compound?
Its Mortality rate is 0.0%.

What about the Weight gain (Step 1 (1~7 days of age)) of the same compound?
The Weight gain was 14.3 g/day.

What about the Weight (Step 1 (1~7 days of age), 0.02% of each additive in formulated feed) of the same compound?
Its Weight is 144.0 g.

And the Feed conversion ratio (Step 2 (8~21 days of age))?
Its Feed conversion ratio is 1.74^a.

What about the Feed intake (Step 2 (8~21 days of age)) of the same compound?
The Feed intake was 69.3 g/day.

And the Mortality rate (Step 2 (8~21 days of age))?
The Mortality rate was 1.3%.

And the Weight (Step 2 (8~21 days of age))?
The Weight was 705.4^e g.

And the Weight gain (Step 2 (8~21 days of age))?
Its Weight gain is 40.1^d g/day.

What about the Feed conversion ratio (Step 3 (22~35 days of age)) of the same compound?
Its Feed conversion ratio is 1.88.

What about the Feed intake (Step 3 (22~35 days of age)) of the same compound?
Its Feed intake is 236.9 g/day.

What about the Mortality rate (Step 3 (22~35 days of age)) of the same compound?
The Mortality rate was 3.8%.

And the Weight (Step 3 (22~35 days of age))?
The Weight was 1592.3^e g.

And the Weight gain (Step 3 (22~35 days of age))?
The Weight gain was 126.7^c g/day.

What about the Feed conversion ratio (Total (1~35 days of age)) of the same compound?
Its Feed conversion ratio is 1.79^a.

And the Feed intake (Total (1~35 days of age))?
The Feed intake was 98.6^bc g/day.

What about the Survival rate (Total (1~35 days of age)) of the same compound?
Its Survival rate is 95.0%.

What about the Weight gain (Total (1~35 days of age)) of the same compound?
Its Weight gain is 55.3^e g/day.

What about the “weight gain, feed intake and feed conversion ratios compared with the control group” value (entire breeding period, result in words) of the same compound?
Its value is “no significant difference”.
